Tests used:
L1210 leukemia [1] = test: S.C. implanted L1210 leukemia in mice (CD2F1); assay type: in vivo
Source text: ^a Experimental formulation of mitindomide was used (NaOH + manitol).

L1210 leukemia [2] = test: IP implanted L1210 leukemia in mice (CD2F1); assay type: in vivo
[3] = background section; cited from earlier work
[4] = test system: certain experimental tumor systems; settings: Pettit et al, Can. J. Chem. 61, 2291-2294 (1983); cited from earlier work
[5] = 18.0 mg/kg ip days 1-9, Expt. 1
[6] = 18.0 mg/kg ip days 1-9, Expt. 2
[7] = 30.0 mg/kg ip days 1-9, Expt. 1
[8] = 30.0 mg/kg ip days 1-9, Expt. 2
[9] = 50.0 mg/kg ip days 1-9, Expt. 1
[10] = 50.0 mg/kg ip days 1-9, Expt. 2
[11] = 83.3 mg/kg ip days 1-9, Expt. 1
[12] = 18.0 mg/kg IP days 1-9, Expt. 1
[13] = 18.0 mg/kg IP days 1-9, Expt. 2
[14] = 18.0 mg/kg IP days 1-9, Expt. 3
[15] = 30.0 mg/kg IP days 1-9, Expt. 1
[16] = 30.0 mg/kg IP days 1-9, Expt. 2
[17] = 30.0 mg/kg IP days 1-9, Expt. 3
[18] = 50.0 mg/kg IP days 1-9, Expt. 1
[19] = 50.0 mg/kg IP days 1-9, Expt. 2
[20] = 50.0 mg/kg IP days 1-9, Expt. 3
[21] = 83.3 mg/kg IP days 1-9, Expt. 1
[22] = 83.3 mg/kg IP days 1-9, Expt. 2
[23] = 83.3 mg/kg IP days 1-9, Expt. 3

Structure (SMILES): O=C1NC(=O)[C@H]2[C@H]3C=C[C@@H]([C@@H]12)[C@@H]1[C@H]2C(=O)NC(=O)[C@H]2[C@H]31 [Mitindomide, 4,8-Ethenopyrrolo[3',4':3,4]cyclobut[1,2-f]-isoindole-1,3,5,7(2H,6H) tetrone, octahydro]
- ILS (L1210 leukemia [1]; [5]): 21%
- MST (L1210 leukemia [1]; [5]): 10.0 days
- Wt. Change (L1210 leukemia [1]; [5]): 0.0 g
- ILS (L1210 leukemia [1]; [6]): 12%
- MST (L1210 leukemia [1]; [6]): 12.0 days
- Wt. Change (L1210 leukemia [1]; [6]): -0.1 g
- ILS (L1210 leukemia [1]; [7]): 50%
- MST (L1210 leukemia [1]; [7]): 12.3 days
- Wt. Change (L1210 leukemia [1]; [7]): -3.8 g
- ILS (L1210 leukemia [1]; [8]): 42%
- MST (L1210 leukemia [1]; [8]): 15.3 days
- Wt. Change (L1210 leukemia [1]; [8]): -1.6 g
- ILS (L1210 leukemia [1]; [9]): 92%
- MST (L1210 leukemia [1]; [9]): 15.8 days
- Wt. Change (L1210 leukemia [1]; [9]): -4.3 g
- ILS (L1210 leukemia [1]; [10]): 136%
- MST (L1210 leukemia [1]; [10]): 25.3 days
- Wt. Change (L1210 leukemia [1]; [10]): -4.2 g
- ILS (L1210 leukemia [1]; [11]): 6%
- MST (L1210 leukemia [1]; [11]): 8.7 days
- Wt. Change (L1210 leukemia [1]; [11]): -5.6 g
- Wt. Change (L1210 leukemia [1]; 83.3 mg/kg ip days 1-9, Expt. 2): -5.6 g
- ILS (L1210 leukemia [2]; [12]): 3%
- MST (L1210 leukemia [2]; [12]): 9.0 days
- Wt. Change (L1210 leukemia [2]; [12]): 2.3 g
- ILS (L1210 leukemia [2]; [13]): 10%
- MST (L1210 leukemia [2]; [13]): 8.8 days
- Wt. Change (L1210 leukemia [2]; [13]): -0.7 g
- ILS (L1210 leukemia [2]; [14]): 13%
- MST (L1210 leukemia [2]; [14]): 9.3 days
- Wt. Change (L1210 leukemia [2]; [14]): 0.3 g
- ILS (L1210 leukemia [2]; [15]): 49%
- MST (L1210 leukemia [2]; [15]): 13.0 days
- Wt. Change (L1210 leukemia [2]; [15]): 1.2 g
- ILS (L1210 leukemia [2]; [16]): 66%
- MST (L1210 leukemia [2]; [16]): 13.3 days
- Wt. Change (L1210 leukemia [2]; [16]): -3.1 g
- ILS (L1210 leukemia [2]; [17]): 86%
- MST (L1210 leukemia [2]; [17]): 15.3 days
- Wt. Change (L1210 leukemia [2]; [17]): -2.2 g
- ILS (L1210 leukemia [2]; [18]): 60%
- MST (L1210 leukemia [2]; [18]): 14.0 days
- Wt. Change (L1210 leukemia [2]; [18]): 0.2 g
- ILS (L1210 leukemia [2]; [19]): 103%
- MST (L1210 leukemia [2]; [19]): 16.3 days
- Wt. Change (L1210 leukemia [2]; [19]): -3.9 g
- ILS (L1210 leukemia [2]; [20]): 156%
- MST (L1210 leukemia [2]; [20]): 21.0 days
- Wt. Change (L1210 leukemia [2]; [20]): -2.8 g
- ILS (L1210 leukemia [2]; [21]): 6%
- MST (L1210 leukemia [2]; [21]): 9.3 days
- Wt. Change (L1210 leukemia [2]; [21]): -2.5 g
- ILS (L1210 leukemia [2]; [22]): 12%
- MST (L1210 leukemia [2]; [22]): 9.0 days
- Wt. Change (L1210 leukemia [2]; [22]): -5.8 g
- ILS (L1210 leukemia [2]; [23]): -3%
- MST (L1210 leukemia [2]; [23]): 8.0 days
- Wt. Change (L1210 leukemia [2]; [23]): -4.5 g
- Wt. Change (L1210 leukemia [2]; 138.9 mg/kg IP days 1-9, Expt. 1): -5.6 g
- Wt. Change (L1210 leukemia [2]; 138.9 mg/kg IP days 1-9, Expt. 3): -5.5 g
- solubility in water [3]: virtually insoluble in water
- inhibitory activity against certain experimental tumor systems [4]: strong inhibitory activity

Reference: US4670461A, “Formaldehyde derivatives of mitindomide” (priority 1984, dated 1987)
